Where two headings read alike, the source gives them in different places.
Columns and labels:
Assay type in all cases: cell-based
[1] = system: SDMA (PRMT5 activity) in HAP1 MTAP-intact cell line; test: SDMA in-cell western assay, HAP1 MTAP-intact
Description: (§1) The SAM-cooperative PRMT5 inhibitor, GSK3326595, was sourced from SelleckChem and maintained as a 10 mM DMSO stock. All test compounds are maintained as 10 mM DMSO stocks
(§2) On Day 0, MTAP-intact or MTAP-deleted cells are seeded in a 384-well plate, and incubated in a humidified, 5% CO2 tissue culture incubator for 16-24 hours. On Day 1, the test compounds are dispensed to wells at defined concentrations using a Tecan D300e digital dispenser (n=4), and the volume of DMSO is normalized to highest class volume. Each plate includes wells dosed with defined concentrations of GSK33226595 as a plate control. The compounds are incubated with cells for 24 hours in a humidified, 5% CO2 tissue culture incubator.
(§3) On Day 2, the compound-treated cells are fixed with a final concentration of 4% formaldehyde. The cells are then washed/permeabilized with 1×PBS+0.1% Triton X-100, and then blocked with 5% goat serum/1×TBS.
(§4) The cells are washed with 1×PBS+0.1% Triton X-100, and then washed again with ddH20. The plates are then imaged using a NIR fluorescent imager (LiCor Odyssey).
(§5) For data analysis, the SDMA signal is normalized to the DRAQ5 signal. Assay background is determined by the signal from wells treated with 1 μM GSK3326595, and subtracted from every well. The data are plotted as % of the DMSO control wells for the MTAP-intact and the MTAP-deleted cell lines independently, and fitted to the 4-parameter logistic (4-PL) Hill equation with maximal effect constrained to 0. The fit was performed using GraphPad Prism or the default IC50 fitting procedure in Dotmatics Studies 5.4 as part of a customized data analysis protocol.

[2] = system: SDMA (PRMT5 activity) in HAP1 MTAP-deleted cell line; test: SDMA in-cell western assay, HAP1 MTAP-deleted
Description: as §1, §2, §3, §4, §5

[3] = system: HAP1 MTAP-deleted cell line; test: Viability assay (CellTiter-Glo), HAP1 MTAP-deleted; conditions: Homo sapiens, 168 h, HAP1 MTAP-deleted cells, 7 days
Description: All test compounds are maintained as 10 mM DMSO stocks.
On Day 0, MTAP-intact and MTAP-deleted cells are seeded in a 96-well plate, and incubated in a humidified, 5 or 10% CO2 tissue culture incubator for 16-24 hours. On Day 1, the test compounds are dispensed to wells at defined concentrations using a Tecan D300e digital dispenser (n=3), and the volume of DMSO is normalized to highest class volume (0.2%). The compound-treated plates are incubated for 7 days in a humidified, 5 or 10% CO2 tissue culture incubator.
On Day 7, the plates are removed from the tissue culture incubator and allowed to equilibrate to room temperature. Then either a ½% volume CellTiter-Glo Luminescent Cell Viability Assay reagent (Promega G7572) is added to each well, or the media is removed from every well and a 1:3 dilution of CellTiter-Glo 2.0 Cell Viability Assay reagent (Promega G9241) in 1×PBS is added. Ten minutes after addition, the luminescent signal is detected by an Envision plate reader. The data are plotted as % of the DMSO control wells for the MTAP-intact and the MTAP-deleted cell lines independently, and fitted to the 4-parameter logistic (4-PL) Hill equation with maximal effect constrained to 0. The fit was performed using GraphPad Prism or the default IC50 fitting procedure in Dotmatics Studies 5.4 as part of a customized data analysis protocol.

[4] = Homo sapiens, HAP1, 24 h, SDMA in-cell western, HAP1 MTAP-intact cells, 24 hours compound incubation
[5] = Homo sapiens, SDMA in-cell western, HAP1 MTAP-deleted cells, 24 hours compound incubation
[6] = ratio of SDMA IC50 in HAP1 MTAP-intact to HAP1 MTAP-deleted cell line

SMILES | IC50 [1, 4] | IC50 [2, 5] | IC90 [2, 5] | Hap1 MTAP intact/deleted ratio [2, 6] | IC50 [3] | IC50 [1] | Hap1 MTAP intact/deleted ratio [2] | IC50 [2] | IC90 [2] | IC50 ([1]; SDMA in-cell western, HAP1 MTAP-intact cells, 24 hours compound incubation)
COc1ncc(NC(=O)C(=O)N2C[C@@H](C)CC[C@@H]2c2ccc3sc([C@H]4CCN(C)C[C@@H]4OC)nc3c2)cc1C(N)=O (single isomer, unassigned) [Compound 35] | > 50 nM | < 5 nM | < 75 nM | A (“A” indicates an IC50 ratio greater than or equal to 30 fold) | < 100 nM |  |  |  |  | 
CCc1cc(NC(=O)C(=O)N2C[C@@H](C)CC[C@@H]2c2ccc3cn([C@@H]4CCN(C)C[C@@H]4C)nc3c2)cnc1N [Compound 127] | 5 to 50 nM | < 5 nM | < 75 nM | C (“C” indicates an IC50 ratio of less than 15 fold) | < 100 nM |  |  |  |  | 
COc1ncc(NC(=O)C(=O)N2C[C@@H](C)CC[C@@H]2c2ccc3cn(C4CCOCC4)nc3c2)cc1C(N)=O [Compound 107, 2-methoxy-5-[[2-oxo-2-[(2R,5S)-5-methyl-2-(2-tetrahydropyran-4-ylindazol-6-yl)-1-piperidyl]acetyl]amino]pyridine-3-carboxamide] | > 50 nM | 5 to 50 nM | 75 to 125 nM | A (“A” indicates an IC50 ratio greater than or equal to 30 fold) | 100 to 1000 nM |  |  |  |  | 
CCc1cc(NC(=O)C(=O)N2C[C@@H](C)CC[C@@H]2c2ccc3sc(C4CN(C)C(C)(C)C4)nc3c2)cnc1N (mixture of isomers) [Compound 13, N-(6-amino-5-ethylpyridin-3-yl)-2-((2R,5S)-5-methyl-2-(2-(1,5,5-trimethylpyrrolidin-3-yl)benzo[d]thiazol-5-yl)piperidin-1-yl)-2-oxoacetamide] | 5 to 50 nM | < 5 nM | < 75 nM | C (“C” indicates an IC50 ratio of less than 15 fold) | < 100 nM |  |  |  |  | 
CCc1cc(NC(=O)C(=O)N2C[C@@H](C)CC[C@@H]2c2ccc3sc([C@@H]4CN(C)CC(C)(C)C4)nc3c2)cnc1N (single isomer, unassigned) [Compound 105] | > 50 nM | < 5 nM | < 75 nM | A (“A” indicates an IC50 ratio greater than or equal to 30 fold) | < 100 nM |  |  |  |  | 
CCc1cc(NC(=O)C(=O)N2C[C@H](C)CC[C@@H]2c2ccc3sc([C@H]4C[C@H](N(C)C)C4)nc3c2)cnc1N [Compound 119, N-(6-amino-5-ethyl-3-pyridyl)-2-oxo-2-[(2R,5R)-2-[2-[3-(dimethylamino)cyclobutyl]-1,3-benzothiazol-5-yl]-5-methyl-1-piperidyl]acetamide] | > 50 nM | > 50 nM | > 125 nM | C (“C” indicates an IC50 ratio of less than 15 fold) | > 1000 nM |  |  |  |  | 
CCc1cc(NC(=O)C(=O)N2C[C@@H](C)CC[C@@H]2c2ccc3cn(C4CCN(C)C(C)(C)C4)nc3c2)cnc1N (stereo partly drawn) [Compound 109, N-(6-amino-5-ethyl-3-pyridyl)-2-oxo-2-[(2R,5S)-5-methyl-2-[2-(1,2,2-trimethyl-4-piperidyl)indazol-6-yl]-1-piperidyl]acetamide] | 5 to 50 nM | < 5 nM | < 75 nM | B (“B” indicates an IC50 ratio greater than or equal to 15 fold but lower than 30 fold) | < 100 nM |  |  |  |  | 
CCc1cc(NC(=O)C(=O)N2C[C@@H](C)CC[C@@H]2c2cccc(OC3CCN(C)C3)c2)cnc1N (mixture of isomers) [Compound 39, N-(6-amino-5-ethylpyridin-3-yl)-2-((2R,5S)-5-methyl-2-(3-((1-methylpyrrolidin-3-yl)oxy)phenyl)piperidin-1-yl)-2-oxoacetamide] | > 50 nM | 5 to 50 nM | 75 to 125 nM | A (“A” indicates an IC50 ratio greater than or equal to 30 fold) | < 100 nM |  |  |  |  | 
CCc1cc(NC(=O)C(=O)N2C[C@@H](C)CC[C@@H]2c2ccc3sc(C(C)CN4CCCC4)nc3c2)cnc1N (single isomer, unassigned) [Compound 2] | 5 to 50 nM | < 5 nM | < 75 nM | B (“B” indicates an IC50 ratio greater than or equal to 15 fold but lower than 30 fold) | < 100 nM |  |  |  |  | 
Cc1cc2cc(C(=O)N3C[C@@H](C)CC[C@@H]3c3ccc4sc(C5CCN(C)CC5)nc4c3)ccc2nc1N [Compound 59, (2-amino-3-methylquinolin-6-yl)((2R,5S)-5-methyl-2-(2-(1-methylpiperidin-4-yl)benzo[d]thiazol-5-yl)piperidin-1-yl)methanone] |  |  |  |  | < 100 nM | > 50 nM | A (key: “A” indicates an IC50 ratio greater than or equal to 30 fold; “B” indicates an IC50 ratio greater than or equal to 15 fold but lower than 30 fold; “C” indicates an IC50 ratio of less than 15 fold) | < 5 nM | < 75 nM | 
COc1ncc(NC(=O)C(=O)N2C[C@@H](C)CC[C@@H]2c2ccc3sc([C@@H]4CN(C)CC4(C)C)nc3c2)cc1C(N)=O (single isomer, unassigned) [Compound 74] | 5 to 50 nM | < 5 nM | < 75 nM | B (“B” indicates an IC50 ratio greater than or equal to 15 fold but lower than 30 fold) | < 100 nM |  |  |  |  | 
CCc1cc(NC(=O)C(=O)N2C[C@@H](C)CC[C@@H]2c2cccc(OC[C@H](C)N(C)C)c2)cnc1N [Compound 66, N-(6-amino-5-ethylpyridin-3-yl)-2-((2R,5S)-2-(3-((S)-2-(dimethylamino)propoxy)phenyl)-5-methylpiperidin-1-yl)-2-oxoacetamide] | > 50 nM | < 5 nM | < 75 nM | A (“A” indicates an IC50 ratio greater than or equal to 30 fold) | < 100 nM |  |  |  |  | 
CCc1cc(NC(=O)C(=O)N2C[C@@H](C)CC[C@@H]2c2ccc3sc([C@H]4C[C@@H]5CN(C)C[C@@H]5C4)nc3c2)cnc1N (single isomer, unassigned) [Compound 33] | > 50 nM | < 5 nM | < 75 nM | A (“A” indicates an IC50 ratio greater than or equal to 30 fold) | < 100 nM |  |  |  |  | 
CCc1cc(NC(=O)C(=O)N2C[C@@H](C)CC[C@@H]2c2ccc3cn(C4CN(C)CC(C)(C)C4)nc3c2)cnc1N (single isomer, unassigned) [Compound 78] |  | < 5 nM | < 75 nM | B (“B” indicates an IC50 ratio greater than or equal to 15 fold but lower than 30 fold) | < 100 nM |  |  |  |  | > 50 nM
CCc1cc(NC(=O)C(=O)N2C[C@@H](C)CC[C@@H]2c2ccc3sc(C[C@H]4CCN(C)C[C@@H]4C)nc3c2)cnc1N (racemic) [Compound 18, N-(6-amino-5-ethylpyridin-3-yl)-2-((2R,5S)-2-(2-((1,3-dimethylpiperidin-4-yl)methyl)benzo[d]thiazol-5-yl)-5-methylpiperidin-1-yl)-2-oxoacetamide] | 5 to 50 nM | < 5 nM | < 75 nM | A (“A” indicates an IC50 ratio greater than or equal to 30 fold) | < 100 nM |  |  |  |  | 

— patent US20250171432A1, “COMPOUNDS AND METHODS OF USE” (Tango Therapeutics, Inc., priority 2022, published 2025)
